Measurements reported in publication PMC8878468, “Image-Based Annotation of Chemogenomic Libraries for Phenotypic Screening” (Molecules, 2022).

Assays:
U2OS cells = assay: Multiplex high-content protocol (nuclei gating, tubulin, mitochondrial mass, membrane permeability); type: cell-based, human; conditions: U2OS; for healthy nuclei (healthy cells) / increase in mitochondrial mass in comparison to DMSO / tubulin effect: 10 µM; for increase in mitochondrial mass in comparison to DMSO / tubulin effect: healthy nuclei only; for marked for tubulin effects while crossing no other phenotypic threshold / mitochondrial mass increase detected: threshold > 50%; for viability at 1 µM: Homo sapiens, read-out: healthy nuclei
Procedure: Using the CQ1 high-content confocal microscope (Yokogawa), cellular shape and fluorescence was measured before and 12 h as well as 24 h after compound treatment. All compounds were diluted in DMSO to a concentration of 10 mM.
The rather large spacing distance was used to create a robust readout, compensating potential plate variations and enabling automated screening without the use of autofocus. The overlap of the fluorescence emission spectra of the dyes was neglectable for all but the MitoTracker Red and Annexin V Alexa Fluor 680 (Supplementary Figure S9).
All images were analyzed using the CellPathfinder software (Yokogawa). Segmentation of cells was performed as described earlier. First, the cells are classified in Hoechst High Intensity Objects or Normal Intensity Objects (Supplementary Table S7). All normal gated cells are further classified in healthy, fragmented or pyknosed nuclei (Supplementary Table S7). The pyknosed cells are gated in mitotic or apoptotic cells using seven features for the cell body and five features for the cell nuclei according to their Annexin V staining intensity (Supplementary Table S7). All cells that were classified as including a healthy nucleus are further gated into three phenotypic classes. […] Growth rate was calculated against non-treated cells and cells treated with DMSO 0.1% [61].

HCT116-FUCCI cells = system: HCT116-FUCCI cells; design: method as in per compound as in column reference of Table S3; conditions: literature annotation in Table S3; ref per compound as in Table S3; cited from earlier work

## c1ccc2oc(-c3csc(C4CCN(Cc5nc6ncccc6[nH]5)CC4)n3)cc2c1 [BAY-179]
U2OS cells; 24 h
  healthy nuclei (healthy cells): over 80%
  increase in mitochondrial mass in comparison to DMSO: over 60%

## Cc1cc(C)c(-n2ccn3nc(-c4cccnc4)cc23)cc1NC(=O)c1cc(C#N)cc(S(F)(F)(F)(F)F)c1 [BAY-826]
U2OS cells; 1 µM
  marked for tubulin effects while crossing no other phenotypic threshold: marked to have tubulin effects

## C[C@@]1(C(=O)Nc2ccc(F)nc2)CCCN1c1nc(Nc2cc(C3CC3)n[nH]2)c2cccn2n1 [BMS-754807]
U2OS cells; 1 µM, 24 h
  viability at 1 µM: ≤ 40%

## CCOC(=O)Nc1cc(-c2ccc(C)c(NS(C)(=O)=O)c2)nn2c(C)nnc12 [Bromosporine]
U2OS cells; 1 µM
  marked for tubulin effects while crossing no other phenotypic threshold: marked to have tubulin effects
HCT116-FUCCI cells
  known cell cycle effect: increase of cells in G1

## CCNc1cc(NC2CCC(O)CC2)nc(Nc2ccc3c(ccn3Cc3ccccc3)c2)n1 (centres unmarked) [CINK4]
U2OS cells; 1 µM
  marked for tubulin effects while crossing no other phenotypic threshold: marked to have tubulin effects

## CN1CCN(Cc2cc(NC(=O)c3ccc4c(c3)CN(c3ccccc3)CC4)cc(C(F)(F)F)c2)CC1 [DDR-TRK-1N]
U2OS cells; 1 µM, 24 h
  healthy nuclei: ≤ 40%

## Cc1ccc(NC(=O)Nc2cc(C(F)(F)F)ccc2F)cc1Nc1ccc2c(c1)NC(=O)/C2=C\c1ccc[nH]1 [GNF-5837]
U2OS cells; 1 µM, 24 h
  viability at 1 µM: ≤ 40%
U2OS cells; 1 µM
  decrease of healthy nuclei count: more than 60%

## CCn1cc(-c2ccnc3[nH]c(-c4cccc(CN(C)C)c4)cc23)c(-c2ccc(NC(=O)N(C)C)cc2)n1 [GSK1070916]
U2OS cells; 1 µM
  mitochondrial mass increase detected: mitochondrial mass increase

## CN([C@@H](Cc1ccc(OS(=O)(=O)c2cccc3cnccc23)cc1)C(=O)N1CCN(c2ccccc2)CC1)S(=O)(=O)c1cccc2cnccc12 [KN-62]
U2OS cells; 1 µM
  tubulin effects: > 90%

## Cc1c(P(=S)(c2ccccc2)c2ccccc2)n2ccccc2[n+]1C/C=C/c1ccccc1 [ML154]
U2OS cells; 1 µM, 24 h
  viability at 1 µM: ≤ 40%

## CC(C)Oc1ccccc1C(=O)Nc1ccccc1C(=O)Nc1cccc(S(=O)(=O)C(F)(F)F)c1 [ML-290]
U2OS cells; 1 µM
  mitochondrial mass increase detected: mitochondrial mass increase

## Nc1ncnc2c1c(-c1cccc(OCc3ccccc3)c1)cn2[C@H]1C[C@@H](CN2CCC2)C1 [NVP-AEW541]
U2OS cells; 1 µM
  mitochondrial mass increase detected: mitochondrial mass increase

## CCOC(=O)c1c(C)[nH]c2ccc3c(c12)CN1CCc2cc(OC)ccc2C1O3 (centres unmarked) [PD 102807]
U2OS cells; 1 µM
  mitochondrial mass increase detected: mitochondrial mass increase

## COc1cc2ncnc(Nc3ccc(F)c(Cl)c3)c2cc1NC(=O)/C=C/CN1CCCCC1 [PF-299804]
U2OS cells; 1 µM, 24 h
  membrane permeabilization effects: more than 65%
U2OS cells; 1 µM
  marked for tubulin effects while crossing no other phenotypic threshold: marked to have tubulin effects

## Cc1[nH]c2ccccc2c1CCNCc1ccc(/C=C/C(=O)NO)cc1 [Panobinostat]
HCT116-FUCCI cells
  known cell cycle effect: G 1/S cell cy cle arrest

## COc1cc(Nc2ccnc3ccc(Br)cc23)cc(OC)c1OC [SGC-GAK-1]
U2OS cells; 1 µM
  mitochondrial mass increase detected: mitochondrial mass increase

## CS(=O)(=O)N1CCCC(NC(=O)[C@H](CCC2CCCCC2)NC(=O)c2ccc(CNC(=O)c3cnc4ccccn34)cc2)C1 (some centres unmarked) [SR-302]
U2OS cells; 24 h
  tubulin effect: more than 90%

## Nc1c(C(=O)NCc2ccc(C(=O)NCCCC3CCCCC3)cc2)cnn1-c1ccccc1 [SR-318]
U2OS cells; 1 µM
  marked for tubulin effects while crossing no other phenotypic threshold: marked to have tubulin effects
U2OS cells; 24 h
  healthy nuclei (healthy cells): over 80%
  increase in mitochondrial mass in comparison to DMSO: over 60%
  tubulin effect: more than 90%

## Cc1[nH]c(/C=C2\C(=O)Nc3ccc(S(=O)(=O)N(C)c4cccc(Cl)c4)cc32)c(C)c1C(=O)N1CCN(C)CC1 [SU11274]
U2OS cells; 1 µM
  marked for tubulin effects while crossing no other phenotypic threshold: marked to have tubulin effects
